PubChem BioAssay (NCI)
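Five concentrations, 48 hours, 96-well plates. GI50 is the concentration that inhibits growth by half. TGI marks complete inhibition of growth.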

Tests used:
Experiment in all cases: growth of human tumour cells (NCI), 48 h
786-0 renal = test system: 786-0 renal
A498 renal = test system: A498 renal
A549 NSCLC = test system: A549 NSCLC
ACHN renal = test system: ACHN renal
BT-549 breast = test system: BT-549 breast
CAKI-1 renal = test system: CAKI-1 renal
CCRF-CEM leukemia = test system: CCRF-CEM leukemia
COLO 205 colon = test system: COLO 205 colon
DU-145 prostate = test system: DU-145 prostate
EKVX NSCLC = test system: EKVX NSCLC
HCC-2998 colon = test system: HCC-2998 colon
HCT-15 colon = test system: HCT-15 colon
HL-60(TB) leukemia = test system: HL-60(TB) leukemia
HOP-62 NSCLC = test system: HOP-62 NSCLC
HOP-92 NSCLC = test system: HOP-92 NSCLC
HS 578T breast = test system: HS 578T breast
HT29 colon = test system: HT29 colon
IGROV1 ovarian = test system: IGROV1 ovarian
K-562 leukemia = test system: K-562 leukemia
KM12 colon = test system: KM12 colon
LOX IMVI melanoma = test system: LOX IMVI melanoma
M14 melanoma = test system: M14 melanoma
MALME-3M melanoma = test system: MALME-3M melanoma
MCF7 breast = test system: MCF7 breast
MDA-MB-231 breast = test system: MDA-MB-231 breast
MDA-MB-435 = test system: MDA-MB-435
MOLT-4 leukemia = test system: MOLT-4 leukemia
NCI-H226 lung = test system: NCI-H226 lung
NCI-H23 lung = test system: NCI-H23 lung
NCI-H460 lung = test system: NCI-H460 lung
NCI-H522 lung = test system: NCI-H522 lung
NCI/ADR-RES ovarian = test system: NCI/ADR-RES ovarian
OVCAR-3 ovarian = test system: OVCAR-3 ovarian
OVCAR-4 ovarian = test system: OVCAR-4 ovarian
OVCAR-5 ovarian = test system: OVCAR-5 ovarian
OVCAR-8 ovarian = test system: OVCAR-8 ovarian
PC-3 prostate = test system: PC-3 prostate
RPMI-8226 leukemia = test system: RPMI-8226 leukemia
RXF 393 renal = test system: RXF 393 renal
SF-268 CNS = test system: SF-268 CNS
SF-295 CNS = test system: SF-295 CNS
SF-539 CNS = test system: SF-539 CNS
SK-MEL-2 melanoma = test system: SK-MEL-2 melanoma
SK-MEL-28 melanoma = test system: SK-MEL-28 melanoma
SK-MEL-5 melanoma = test system: SK-MEL-5 melanoma
SK-OV-3 ovarian = test system: SK-OV-3 ovarian
SN12C renal = test system: SN12C renal
SNB-19 CNS = test system: SNB-19 CNS
SNB-75 CNS = test system: SNB-75 CNS
SR leukemia = test system: SR leukemia
SW-620 colon = test system: SW-620 colon
T-47D breast = test system: T-47D breast
TK-10 renal = test system: TK-10 renal
U251 CNS = test system: U251 CNS
UACC-257 melanoma = test system: UACC-257 melanoma
UACC-62 melanoma = test system: UACC-62 melanoma
UO-31 renal = test system: UO-31 renal

With `O=C(/C=C/c1ccc(Cl)cc1)c1ccc(Nc2ccnc3cc(Cl)ccc23)cc1` the GI50 (786-0 renal) was 38.1 µM, the TGI (786-0 renal) was over 100 µM and the GI50 (A498 renal) was over 44.7 µM. For the same molecule, the TGI (A498 renal) was over 71.8 µM, the GI50 (A549 NSCLC) was over 100 µM and the TGI (A549 NSCLC) was over 100 µM. For the same molecule, the GI50 (ACHN renal) was over 100 µM, the TGI (ACHN renal) was over 100 µM and the GI50 (BT-549 breast) was 29.3 µM. It also gave a TGI (BT-549 breast) of over 100 µM, a TGI (CAKI-1 renal) of over 100 µM and a GI50 (CCRF-CEM leukemia) of 7.3 µM. It also gave a TGI (CCRF-CEM leukemia) of over 100 µM, a GI50 (COLO 205 colon) of 31.9 µM and a TGI (COLO 205 colon) of over 100 µM. For the same molecule, the GI50 (DU-145 prostate) was 27.6 µM, the TGI (DU-145 prostate) was over 100 µM and the GI50 (EKVX NSCLC) was over 84.6 µM. It also gave a TGI (EKVX NSCLC) of over 100 µM, a GI50 (HCC-2998 colon) of over 80.5 µM and a TGI (HCC-2998 colon) of over 100 µM. It also gave a GI50 (HCT-15 colon) of 23.7 µM, a TGI (HCT-15 colon) of over 100 µM and a GI50 (HL-60(TB) leukemia) of 9.16 µM. The TGI (HL-60(TB) leukemia) was 59.6 µM, the GI50 (HOP-62 NSCLC) was 99.2 µM and the TGI (HOP-62 NSCLC) was over 100 µM. The GI50 (HOP-92 NSCLC) was over 40.6 µM, the TGI (HOP-92 NSCLC) was over 100 µM and the GI50 (HS 578T breast) was 36.3 µM. For the same molecule, the TGI (HS 578T breast) was over 100 µM, the GI50 (HT29 colon) was 1.07 µM and the TGI (HT29 colon) was over 100 µM. It also gave a GI50 (IGROV1 ovarian) of 48.6 µM, a TGI (IGROV1 ovarian) of over 100 µM and a GI50 (K-562 leukemia) of 4.98 µM. For the same molecule, the TGI (K-562 leukemia) was over 100 µM, the GI50 (KM12 colon) was 4.61 µM and the TGI (KM12 colon) was 44.3 µM. It also gave a GI50 (LOX IMVI melanoma) of over 46.6 µM, a TGI (LOX IMVI melanoma) of over 100 µM and a GI50 (M14 melanoma) of 26.8 µM. The TGI (M14 melanoma) was over 100 µM, the GI50 (MALME-3M melanoma) was over 100 µM and the TGI (MALME-3M melanoma) was over 100 µM. For the same molecule, the GI50 (MCF7 breast) was 1.56 µM, the TGI (MCF7 breast) was over 100 µM and the GI50 (MDA-MB-231 breast) was 20.3 µM. The TGI (MDA-MB-231 breast) was over 58.4 µM, the GI50 (MDA-MB-435) was 9.3 µM and the TGI (MDA-MB-435) was over 100 µM. The GI50 (MOLT-4 leukemia) was 5.46 µM, the TGI (MOLT-4 leukemia) was over 100 µM and the GI50 (NCI-H226 lung) was over 100 µM. For the same molecule, the TGI (NCI-H226 lung) was over 100 µM, the GI50 (NCI-H23 lung) was over 100 µM and the TGI (NCI-H23 lung) was over 100 µM. The GI50 (NCI-H460 lung) was over 57.6 µM, the TGI (NCI-H460 lung) was over 100 µM and the GI50 (NCI-H522 lung) was over 100 µM. For the same molecule, the TGI (NCI-H522 lung) was over 100 µM, the GI50 (NCI/ADR-RES ovarian) was over 100 µM and the TGI (NCI/ADR-RES ovarian) was over 100 µM. The GI50 (OVCAR-3 ovarian) was 32 µM, the TGI (OVCAR-3 ovarian) was over 100 µM and the GI50 (OVCAR-4 ovarian) was over 100 µM. It also gave a TGI (OVCAR-4 ovarian) of over 100 µM, a GI50 (OVCAR-5 ovarian) of 22.1 µM and a TGI (OVCAR-5 ovarian) of 68.5 µM. The GI50 (OVCAR-8 ovarian) was over 100 µM, the TGI (OVCAR-8 ovarian) was over 100 µM and the GI50 (PC-3 prostate) was over 53.6 µM. The TGI (PC-3 prostate) was over 100 µM, the GI50 (RPMI-8226 leukemia) was 2.08 µM and the TGI (RPMI-8226 leukemia) was over 30.7 µM. It also gave a GI50 (RXF 393 renal) of 10.7 µM, a TGI (RXF 393 renal) of over 83.8 µM and a GI50 (SF-268 CNS) of over 84 µM. The TGI (SF-268 CNS) was over 100 µM, the TGI (SF-295 CNS) was over 48.8 µM and the GI50 (SF-539 CNS) was over 63.3 µM. It also gave a TGI (SF-539 CNS) of over 100 µM, a GI50 (SK-MEL-2 melanoma) of over 100 µM and a TGI (SK-MEL-2 melanoma) of over 100 µM. For the same molecule, the GI50 (SK-MEL-28 melanoma) was 31.9 µM, the TGI (SK-MEL-28 melanoma) was over 100 µM and the TGI (SK-MEL-5 melanoma) was over 53.8 µM. The GI50 (SK-OV-3 ovarian) was over 100 µM, the TGI (SK-OV-3 ovarian) was over 100 µM and the GI50 (SN12C renal) was over 100 µM. The TGI (SN12C renal) was over 100 µM, the GI50 (SNB-19 CNS) was over 57.6 µM and the TGI (SNB-19 CNS) was over 100 µM. The GI50 (SNB-75 CNS) was over 100 µM, the TGI (SNB-75 CNS) was over 100 µM and the GI50 (SR leukemia) was 0.565 µM. For the same molecule, the TGI (SR leukemia) was over 100 µM, the GI50 (SW-620 colon) was 6.05 µM and the TGI (SW-620 colon) was over 67.5 µM. It also gave a GI50 (T-47D breast) of over 55.7 µM, a TGI (T-47D breast) of over 100 µM and a GI50 (TK-10 renal) of over 84.7 µM. The TGI (TK-10 renal) was over 100 µM, the GI50 (U251 CNS) was 28.8 µM and the TGI (U251 CNS) was over 100 µM. For the same molecule, the GI50 (UACC-257 melanoma) was over 100 µM, the TGI (UACC-257 melanoma) was over 100 µM and the GI50 (UACC-62 melanoma) was over 100 µM. It also gave a TGI (UACC-62 melanoma) of over 100 µM, a GI50 (UO-31 renal) of over 74.7 µM and a TGI (UO-31 renal) of over 100 µM.
